From the supplement of paper PMC10307832

Tests used:
Experiment in all cases: relative viability (nuclei count vs DMSO), 5 days (fraction); higher = more cells survive
CAL-12T = test system: CAL-12T
How it was run: (§1)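 A single step with final 0.05% Triton X-100, 1% formaldehyde and 1 ug/ml Hoechst fixed the cells and stained nuclei 5 days after treatment. Lung cancer cell lines in 1536-well plates had been treated by pin tool the day after seeding with one drug alone or a fixed anchor-drug dose plus five library-drug doses (not always all listed) in √10 steps, and nuclei were counted on 4× images. Relative viability is the ratio of nuclei in treated wells to nuclei in vehicle wells, taken as the median of duplicate plates.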

SW 1573 = test system: SW 1573
How it was run: as §1

HCC-366 = test system: HCC-366
How it was run: as §1

NCI-H1755 = test system: NCI-H1755
How it was run: as §1

NCI-H1915 = test system: NCI-H1915
How it was run: as §1

EMC-BAC-2 = test system: EMC-BAC-2
How it was run: as §1

NCI-H522 = test system: NCI-H522
How it was run: as §1

NCI-H1395 = test system: NCI-H1395
How it was run: as §1

NCI-H727 = test system: NCI-H727
How it was run: as §1

COR-L 105 = test system: COR-L 105
How it was run: as §1

HOP-62 = test system: HOP-62
How it was run: as §1

NCI-H23 = test system: NCI-H23
How it was run: as §1

HARA = test system: HARA
How it was run: as §1

NCI-H2228 = test system: NCI-H2228
How it was run: as §1

A-427 = test system: A-427
How it was run: as §1

NCI-H2009 = test system: NCI-H2009
How it was run: as §1

LCLC-103H = test system: LCLC-103H
How it was run: as §1

HCC-827 = test system: HCC-827
How it was run: as §1

NCI-H1437 = test system: NCI-H1437
How it was run: as §1

SK-LU-1 = test system: SK-LU-1
How it was run: as §1

NCI-H460 = test system: NCI-H460
How it was run: as §1

O=c1cc(-c2cccc3c2Sc2ccccc2S3)oc(N2CCOCC2)c1 + O=C(CCCCCCC(=O)Nc1ccccc1)NO [Vorinostat] (partner 1 µM)
relative viability (CAL-12T; first compound 0.08 µM): 0.677 | relative viability (CAL-12T; first compound 0.253 µM): 0.782 | relative viability (CAL-12T; first compound 0.8 µM): 0.765 | relative viability (CAL-12T; first compound 2.53 µM): 0.799 | relative viability (CAL-12T; first compound 8 µM): 0.699 | relative viability (SW 1573; first compound 0.08 µM): 0.702 | relative viability (SW 1573; first compound 0.253 µM): 0.933 | relative viability (SW 1573; first compound 0.8 µM): 1.01 | relative viability (SW 1573; first compound 2.53 µM): 0.771 | relative viability (SW 1573; first compound 8 µM): 0.907 | relative viability (HCC-366; first compound 0.08 µM): 0.347 | relative viability (HCC-366; first compound 0.253 µM): 0.387 | relative viability (HCC-366; first compound 0.8 µM): 0.297 | relative viability (HCC-366; first compound 2.53 µM): 0.426 | relative viability (HCC-366; first compound 8 µM): 0.42 | relative viability (NCI-H1755; first compound 0.08 µM): 0.734 | relative viability (NCI-H1755; first compound 0.253 µM): 0.797 | relative viability (NCI-H1755; first compound 0.8 µM): 0.795 | relative viability (NCI-H1755; first compound 2.53 µM): 0.709 | relative viability (NCI-H1755; first compound 8 µM): 0.8 | relative viability (NCI-H1915; first compound 0.08 µM): 0.549 | relative viability (NCI-H1915; first compound 0.253 µM): 0.492 | relative viability (NCI-H1915; first compound 0.8 µM): 0.592 | relative viability (NCI-H1915; first compound 2.53 µM): 0.517 | relative viability (NCI-H1915; first compound 8 µM): 0.562 | relative viability (EMC-BAC-2; first compound 0.08 µM): 0.35 | relative viability (EMC-BAC-2; first compound 0.253 µM): 0.471 | relative viability (EMC-BAC-2; first compound 0.8 µM): 0.524 | relative viability (EMC-BAC-2; first compound 2.53 µM): 0.607 | relative viability (EMC-BAC-2; first compound 8 µM): 0.48 | relative viability (NCI-H522; first compound 0.08 µM): 0.952 | relative viability (NCI-H522; first compound 0.253 µM): 0.909 | relative viability (NCI-H522; first compound 0.8 µM): 0.811 | relative viability (NCI-H522; first compound 2.53 µM): 0.736 | relative viability (NCI-H522; first compound 8 µM): 1 | relative viability (NCI-H1395; first compound 0.08 µM): 0.636 | relative viability (NCI-H1395; first compound 0.253 µM): 0.625 | relative viability (NCI-H1395; first compound 0.8 µM): 0.777 | relative viability (NCI-H1395; first compound 2.53 µM): 0.669 | relative viability (NCI-H1395; first compound 8 µM): 0.759 | relative viability (NCI-H727; first compound 0.08 µM): 1.01 | relative viability (NCI-H727; first compound 0.253 µM): 1.29 | relative viability (NCI-H727; first compound 2.53 µM): 1.09 | relative viability (NCI-H727; first compound 8 µM): 1.24 | relative viability (COR-L 105; first compound 0.08 µM): 0.782 | relative viability (COR-L 105; first compound 0.253 µM): 0.828 | relative viability (COR-L 105; first compound 0.8 µM): 0.751 | relative viability (COR-L 105; first compound 2.53 µM): 0.795 | relative viability (COR-L 105; first compound 8 µM): 1.1 | relative viability (HOP-62; first compound 0.08 µM): 0.646 | relative viability (HOP-62; first compound 0.253 µM): 0.832 | relative viability (HOP-62; first compound 0.8 µM): 0.691 | relative viability (HOP-62; first compound 2.53 µM): 0.661 | relative viability (HOP-62; first compound 8 µM): 0.664 | relative viability (NCI-H23; first compound 0.08 µM): 0.477 | relative viability (NCI-H23; first compound 0.253 µM): 0.593 | relative viability (NCI-H23; first compound 0.8 µM): 0.669 | relative viability (NCI-H23; first compound 2.53 µM): 0.543 | relative viability (NCI-H23; first compound 8 µM): 0.516 | relative viability (HARA; first compound 0.08 µM): 0.538 | relative viability (HARA; first compound 0.253 µM): 0.59 | relative viability (HARA; first compound 0.8 µM): 0.442 | relative viability (HARA; first compound 8 µM): 0.36 | relative viability (NCI-H2228; first compound 0.08 µM): 0.824 | relative viability (NCI-H2228; first compound 0.253 µM): 0.646 | relative viability (NCI-H2228; first compound 0.8 µM): 0.76 | relative viability (NCI-H2228; first compound 2.53 µM): 0.7 | relative viability (NCI-H2228; first compound 8 µM): 0.578 | relative viability (A-427; first compound 0.08 µM): 0.863 | relative viability (A-427; first compound 0.253 µM): 0.931 | relative viability (A-427; first compound 0.8 µM): 0.897 | relative viability (A-427; first compound 2.53 µM): 0.834 | relative viability (A-427; first compound 8 µM): 0.829 | relative viability (NCI-H2009; first compound 0.08 µM): 0.761 | relative viability (NCI-H2009; first compound 0.253 µM): 0.751 | relative viability (NCI-H2009; first compound 0.8 µM): 0.667 | relative viability (NCI-H2009; first compound 2.53 µM): 0.684 | relative viability (NCI-H2009; first compound 8 µM): 0.699 | relative viability (LCLC-103H; first compound 0.08 µM): 0.757 | relative viability (LCLC-103H; first compound 0.253 µM): 0.814 | relative viability (LCLC-103H; first compound 0.8 µM): 0.66 | relative viability (LCLC-103H; first compound 2.53 µM): 0.727 | relative viability (LCLC-103H; first compound 8 µM): 0.864 | relative viability (HCC-827; first compound 0.08 µM): 0.768 | relative viability (HCC-827; first compound 0.253 µM): 0.945 | relative viability (HCC-827; first compound 0.8 µM): 0.77 | relative viability (HCC-827; first compound 2.53 µM): 0.476 | relative viability (HCC-827; first compound 8 µM): 0.923 | relative viability (NCI-H1437; first compound 0.08 µM): 0.857 | relative viability (NCI-H1437; first compound 0.253 µM): 0.9 | relative viability (NCI-H1437; first compound 0.8 µM): 0.847 | relative viability (NCI-H1437; first compound 2.53 µM): 0.761 | relative viability (NCI-H1437; first compound 8 µM): 0.857 | relative viability (SK-LU-1; first compound 0.08 µM): 0.8 | relative viability (SK-LU-1; first compound 0.253 µM): 0.894 | relative viability (SK-LU-1; first compound 0.8 µM): 0.877 | relative viability (SK-LU-1; first compound 2.53 µM): 0.709 | relative viability (SK-LU-1; first compound 8 µM): 0.705 | relative viability (NCI-H460; first compound 0.08 µM): 0.892 | relative viability (NCI-H460; first compound 0.253 µM): 1.49 | relative viability (NCI-H460; first compound 0.8 µM): 0.772 | relative viability (NCI-H460; first compound 2.53 µM): 0.692 | relative viability (NCI-H460; first compound 8 µM): 1.04
